Assay results from patent US20250171438A1 (Agios Pharmaceuticals, Inc., priority 2022, published 2025).

Molecular target: T1, human PAH with the R408W mutation (Homo sapiens, UniProt P00439, R408W)
T1 construct: expressed in transfected cells
T1 sequence (P00439 1-452 R408W): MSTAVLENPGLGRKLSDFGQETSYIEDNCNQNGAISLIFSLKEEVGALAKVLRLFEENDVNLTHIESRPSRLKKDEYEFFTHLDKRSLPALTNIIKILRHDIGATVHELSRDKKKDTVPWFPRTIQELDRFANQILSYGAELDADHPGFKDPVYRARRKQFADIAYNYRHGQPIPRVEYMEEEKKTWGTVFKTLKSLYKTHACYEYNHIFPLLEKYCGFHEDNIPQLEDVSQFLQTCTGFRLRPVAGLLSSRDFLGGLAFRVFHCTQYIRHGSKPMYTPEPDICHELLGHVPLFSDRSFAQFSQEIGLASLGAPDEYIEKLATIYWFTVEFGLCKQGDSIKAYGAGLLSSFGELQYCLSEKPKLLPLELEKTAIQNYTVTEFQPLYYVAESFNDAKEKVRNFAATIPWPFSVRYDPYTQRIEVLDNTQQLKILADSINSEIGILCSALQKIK
Experiment: Cell Based Phenylalanine Flux Assay
Conditions: A375 cells expressing human R408W PAH; 24 hrs compound incubation; 13C-Tyrosine by LC-MS; average where tested multiple times; read-out: AC50

Row | Structure (SMILES) | AC50
1 | CC(C)(O)c1nc(Br)c(C(=O)N2CCc3[nH]cnc3[C@H]2c2nc3ccccc3s2)s1 [Example 2107] | < 0.5 µM
2 | C[C@@H](O)c1nc(C(F)F)c(C(=O)N2CCc3[nH]cnc3[C@@H]2c2nc3c(C(F)(F)F)cccc3s2)o1 [Example 2110, (4-(difluoromethyl)-2-((R)-1-hydroxyethyl)oxazol-5-yl)((R)-4-(4-(trifluoromethyl)benzo[d]thiazol-2-yl)-6,7-dihydro-1H-imidazo[4,5-c]pyridin-5(4H)-yl)methanone] | 1 to 5 µM
3 | Cn1nccc1C(=O)N1CCc2[nH]cnc2[C@H]1c1nc2c(C(F)(F)F)cccc2s1 [Example 2111, (S)-(1-methyl-1H-pyrazol-5-yl)(4-(4-(trifluoromethyl)benzo[d]thiazol-2-yl)-6,7-dihydro-1H-imidazo[4,5-c]pyridin-5(4H)-yl)methanone] | 0.5 to 1 µM
4 | Cn1nccc1C(=O)N1CCc2[nH]cnc2[C@@H]1c1nc2c(C(F)(F)F)cccc2s1 [Example 2112, (R)-(1-methyl-1H-pyrazol-5-yl)(4-(4-(trifluoromethyl)benzo[d]thiazol-2-yl)-6,7-dihydro-1H-imidazo[4,5-c]pyridin-5(4H)-yl)methanone] | 1 to 5 µM
5 | C[C@H](O)c1nc(C(F)F)c(C(=O)N2CCc3[nH]cnc3[C@H]2c2nc3c(C(F)(F)F)cccc3s2)o1 [Example 2113, (4-(difluoromethyl)-2-((S)-1-hydroxyethyl)oxazol-5-yl) ((S)-4-(4-(trifluoromethyl)benzo[d]thiazol-2-yl)-6,7-dihydro-1H-imidazo[4,5-c]pyridin-5(4H)-yl)methanone] | < 0.5 µM
6 | C[C@H](O)c1nc(C(F)F)c(C(=O)N2CCc3[nH]cnc3[C@@H]2c2nc3c(C(F)(F)F)cccc3s2)o1 [Example 2114, (4-(difluoromethyl)-2-((S)-1-hydroxyethyl)oxazol-5-yl)((R)-4-(4-(trifluoromethyl)benzo[d]thiazol-2-yl)-6,7-dihydro-1H-imidazo[4,5-c]pyridin-5(4H)-yl)methanone] | 0.5 to 1 µM
7 | Cc1nc(C(C)(C)O)oc1C(=O)N1CCc2[nH]cnc2[C@H]1c1nc2c(C(F)(F)F)cccc2s1 [Example 2115, (S)-(2-(2-hydroxypropan-2-yl)-4-methyloxazol-5-yl)(4-(4-(trifluoromethyl)benzo[d]thiazol-2-yl)-6,7-dihydro-1H-imidazo[4,5-c]pyridin-5(4H)-yl)methanone] | 0.5 to 1 µM
8 | O=C(c1cnc(-c2ccc(F)cc2)o1)N1CCc2[nH]cnc2[C@H]1c1nc2ccccc2s1 [Example 2117] | < 0.5 µM
9 | O=C(c1oc(-c2ccccn2)nc1C1CC1)N1CCCc2[nH]cnc2[C@H]1c1nc2ccccc2s1 [Example 2119, (S)-(4-(benzo[d]thiazol-2-yl)-7,8-dihydroimidazo[4,5-c]azepin-5(1H,4H,6H)-yl)(4-cyclopropyl-2-(pyridin-2-yl)oxazol-5-yl)methanone] | 0.5 to 1 µM
10 | O=C(c1oc(-c2ccccn2)nc1C1CC1)N1CCCc2[nH]cnc2[C@@H]1c1nc2ccccc2s1 [Example 2120, (R)-(4-(benzo[d]thiazol-2-yl)-7,8-dihydroimidazo[4,5-c]azepin-5(1H,4H,6H)-yl)(4-cyclopropyl-2-(pyridin-2-yl)oxazol-5-yl)methanone] | 1 to 5 µM
11 | O=C(c1oc(-c2ccccn2)nc1C(F)(F)F)N1CCCc2[nH]cnc2[C@H]1c1nc2ccccc2s1 [Example 2121, (S)-(4-(benzo[d]thiazol-2-yl)-7,8-dihydroimidazo[4,5-c]azepin-5(1H,4H,6H)-yl)(2-(pyridin-2-yl)-4-(trifluoromethyl)oxazol-5-yl)methanone] | 0.5 to 1 µM
12 | CC(C)(O)c1nc(C(F)(F)F)c(C(=O)N2CCCc3[nH]cnc3[C@H]2c2nc3ccccc3s2)o1 [Example 2123, (S)-(4-(benzo[d]thiazol-2-yl)-7,8-dihydroimidazo[4,5-c]azepin-5(1H,4H,6H)-yl)(2-(2-hydroxypropan-2-yl)-4-(trifluoromethyl)oxazol-5-yl)methanone] | 1 to 5 µM
13 | CC(C)(O)c1nc(C(F)(F)F)c(C(=O)N2CCCc3[nH]cnc3[C@@H]2c2nc3ccccc3s2)o1 [Example 2124, (R)-(4-(benzo[d]thiazol-2-yl)-7,8-dihydroimidazo[4,5-c]azepin-5(1H,4H,6H)-yl)(2-(2-hydroxypropan-2-yl)-4-(trifluoromethyl)oxazol-5-yl)methanone] | 1 to 5 µM
14 | O=C(c1oc(NC2CC2)nc1C(F)(F)F)N1CCCc2[nH]cnc2[C@@H]1c1nc2ccccc2s1 [Example 2128, (R)-(4-(benzo[d]thiazol-2-yl)-7,8-dihydroimidazo[4,5-c]azepin-5(1H,4H,6H)-yl)(2-(cyclopropylamino)-4-(trifluoromethyl)oxazol-5-yl)methanone] | 1 to 5 µM
15 | Cc1ncoc1C(=O)N1CCCc2[nH]cnc2[C@H]1c1nc2ccccc2s1 [Example 2129, (S)-(4-(benzo[d]thiazol-2-yl)-7,8-dihydroimidazo[4,5-c]azepin-5(1H,4H,6H)-yl)(4-methyloxazol-5-yl)methanone] | 1 to 5 µM

Further lines, results first:

Row | AC50 | Structure (SMILES)
16 | < 0.5 µM | CC(C)(O)c1nc(C(F)F)c(C(=O)N2CCc3[nH]cnc3[C@@H]2c2nc3ccccc3s2)s1 [Example 2106, (R)-(4-(benzo[d]thiazol-2-yl)-6,7-dihydro-1H-imidazo[4,5-c]pyridin-5(4H)-yl)(4-(difluoromethyl)-2-(2-hydroxypropan-2-yl)thiazol-5-yl)methanone]
17 | 1 to 5 µM | CC(C)(O)c1nc(Br)c(C(=O)N2CCc3[nH]cnc3[C@@H]2c2nc3ccccc3s2)s1 [Example 2108, (R)-(4-(benzo[d]thiazol-2-yl)-6,7-dihydro-1H-imidazo[4,5-c]pyridin-5(4H)-yl)(4-bromo-2-(2-hydroxypropan-2-yl)thiazol-5-yl)methanone]
18 | < 0.5 µM | C[C@@H](O)c1nc(C(F)F)c(C(=O)N2CCc3[nH]cnc3[C@H]2c2nc3c(C(F)(F)F)cccc3s2)o1 [Example 2109, (4-(difluoromethyl)-2-((R)-1-hydroxyethyl)oxazol-5-yl) ((S)-4-(4-(trifluoromethyl)benzo[d]thiazol-2-yl)-6,7-dihydro-1H-imidazo[4,5-c]pyridin-5(4H)-yl)methanone]
19 | 1 to 5 µM | Cc1nc(C(C)(C)O)oc1C(=O)N1CCc2[nH]cnc2[C@@H]1c1nc2c(C(F)(F)F)cccc2s1 [Example 2116, (R)-(2-(2-hydroxypropan-2-yl)-4-methyloxazol-5-yl)(4-(4-(trifluoromethyl)benzo[d]thiazol-2-yl)-6,7-dihydro-1H-imidazo[4,5-c]pyridin-5(4H)-yl)methanone]
20 | 1 to 5 µM | O=C(c1cnc(-c2ccc(F)cc2)o1)N1CCc2[nH]cnc2[C@@H]1c1nc2ccccc2s1 [Example 2118, (R)-(4-(benzo[d]thiazol-2-yl)-6,7-dihydro-1H-imidazo[4,5-c]pyridin-5(4H)-yl)(2-(4-fluorophenyl)oxazol-5-yl)methanone]
21 | 1 to 5 µM | O=C(c1oc(-c2ccccn2)nc1C(F)(F)F)N1CCCc2[nH]cnc2[C@@H]1c1nc2ccccc2s1 [Example 2122, (R)-(4-(benzo[d]thiazol-2-yl)-7,8-dihydroimidazo[4,5-c]azepin-5(1H,4H,6H)-yl)(2-(pyridin-2-yl)-4-(trifluoromethyl)oxazol-5-yl)methanone]
22 | 1 to 5 µM | O=C(c1oc(NC2CC2)nc1C(F)(F)F)N1CCCc2[nH]cnc2[C@H]1c1nc2ccccc2s1 [Example 2127, (S)-(4-(benzo[d]thiazol-2-yl)-7,8-dihydroimidazo[4,5-c]azepin-5(1H,4H,6H)-yl)(2-(cyclopropylamino)-4-(trifluoromethyl)oxazol-5-yl)methanone]
